Assay [1] concerns NCI-H716 cells. Kind of assay: GLP-1 secretion by NCI-H716 cells (Examples 2-8). The format is cell-based, human. The conditions noted are these: 2 hours. On the procedure:
NCI-H716 cells were maintained in 75 cm^2 tissue culture flasks (Corning) in RPMI 1640 media containing 2.0 mM L-glutamine, 1.5 g/L sodium bicarbonate, 10 mM HEPES buffer, 1.0 mM sodium pyruvate, and 4.5 g/L glucose and supplemented with 10% FBS at a 37° C. and 5% CO2. When plating for experiment, cell adhesion and endocrine differentiation were initiated by growing cells in dishes coated with growth factor reduced Matrigel diluted at the ratio of 1:2 (Becton Dickinson, Bedford, MA) in high-glucose DMEM, 10% FBS, 2 mM glutamine, 100 IU/ml penicillin, and 100 μg/ml streptomycin as described previously by De Bruine, a P., Dinjens, W. N., van der Linden, E. P., Pijls, M. M., Moerkerk, P. T., & Bosman, F. T. (1993) The American Journal of Pathology, Vol 142(3), pp 773-782, the disclosure of which is incorporated herein in its entirety by reference.
(§1) Approximately 80,000 Glutag cells were plated in poly-L-lysine-coated 24-well culture plates and grown to about 80% confluence. NCI-H716 cells were seeded on growth factor reduced Matrigel™ (Becton Dickinson, Bedford, MA) in DMEM medium, supplemented with 10% FBS the day before the experiment. For NCI-H716 cells, approximately 25,000 cells were needed for this secretion experiment in order to have good stimulation with lower basal GLP-1 secretion. In brief, Glutag and NCI-H716 cells were washed twice and then incubated for 2 h with FBS-free DMEM containing 1% (M:C) alone (negative control), 10 μM forskolin as positive control (Sigma-Aldrich), or with different concentrations of Oleoyl-LPI. M:C was used as a solvent to prepare stock solutions of fatty acid derivatives and inhibitors. For secretion experiments, medium and cells were collected separately.
In separate studies, GLUTag or NCI-H716 cells were pre-treated for 1 hour with medium alone (1% DMSO, negative control), PD98059 (50 μM; Sigma Chemical Co.), H89 (10 μM; Santa Cruz) followed by treatment with oleoyl-LPI (20 μM), OEA (10 μM), AR231453(1 μM), PMA (10 μM) or forskolin (10 μM, positive control) in the presence of inhibitors, as appropriate, for about 2 h. Medium GLP-1 secretion was calculated as total GLP-1 content of medium normalised for the basal secretion of the control.
In order to investigate the role of different LPI species in enteroendocrine cells, murine (Glutag) and human (NCI-H716) L-cells were stimulated with the following different species of LPI: Arachidonyl-LPI, Stearoyl-LPI, Heptadecenoyl-LPI and oleoyl-LPI, as well as with OEA and LPC. Experiments were performed in duplicate, n=4 and the level of total GLP-1 was measured by ELISA.

The test system of assay [2] is Glutag and NCI-H761 cells. Kind of assay: Dose response of GLP-1 release at different glucose concentrations. The format is cell-based. The note with it: 5 mM glucose, 2 hours, percentage of vehicle control. Here is the method: Panels A and B show results of dose response of GLP-1 release in different glucose concentration of 5 mM (panel A) and 10 mM (panel B). The dose response of GLP-1 released was normalised of number of cells measured in parallel. Glutag and […] cells were incubated with vehicle alone, oleoyl-LPI, OEA, LPC forskolin (10 μM) and PMA (1 μM) as positive control for 2 hours. Results were normalised as percentage of cell treated with vehicle (control). For panels A and B data are shown as means±SEM of n=3 from independent experiments performed in duplicates. Student t-test: *p<0.05, **P<0.01. Panel C show results of dose response of GLP-1 release in a glucose concentration of 20 mM.
as §1
To determine the effect of glucose in oleoyl-LPI induced GLP-1 secretion, the inventors conducted dose-response experiment in the presence of 5 mM and 10 mM glucose in the secretion medium with the results outlined in FIG. 2A and FIG. 2B.

Assay [3] deals with primary culture of mixed colonic preparations. Kind of assay: GLP-1 secretion by mixed primary colonic culture. The format is cell-based, mice. An excerpt:
Mice were euthanized, and 5 cm of colon were used for isolation of epithelial cells following as previously described by Reimann, F., Habib, A. M., Tolhurst, G., Parker, H. E., Rogers, G. J., & Gribble, F. M. (2008), Cell Metabolism, Vol 8(6), pp 532-539, the disclosure of which is incorporated herein by reference in its entirety. Briefly, colon segments were dissected from 10 week-old C57BL/6 male mice. Segments were cut open longitudinally and washed quickly in DMEM (serum-free) to remove luminal contents. Colon was chopped into about 1-2 mm pieces and digested with about 0.5 mg/ml collagenase-P for 15 min. Resulting cell suspensions were filtered through 70 μm nylon cell strainers (BD Falcon, UK), centrifuged at 300 g for 5 min, and pellets re-suspended in DMEM supplemented with 10% FBS. The purified cells were collected and cultured on 24-well Matrigel-coated plates at 37° C. in DMEM (25 mM glucose), 10% FBS, 2 mM L-glutamine, 1% penicillin/streptomycin. On the day of GLP-1 assay, cells were washed twice with PBS, and then treated with LPI or vehicle Methanol: Chloroform, (M:C), v/v for 2 h at 37° C. Supernatants were collected for GLP-1 quantification using the active GLP-1 ELISA kit from Millipore. […]

Turning to “oleoyl-lysophosphatidylinositol [oleoyl-LPI]”, the GLP-1 secretion in assay [1] (NCI-H716 cells, normalised as percentage of cells treated with vehicle (control)) worked out at 124±7.4%; in assay [2] (10 μM) it was 126±8%; in assay [2] (20 μM), 223±23%; in assay [2] (50 μM), 333±45%. Besides, in assay [1] (siGPR55 transfected NCI-H716 cells, oleoyl-LPI 20 μM), the “effect of down-regulation of GPR55 on GLP-1 secretion” value is given as “no effect on GLP-1 secretion”. The “GLP-1 secretion in siGPR119-transfected cells” value in assay [1] (siGPR119 transfected NCI-H716 cells, oleoyl-LPI 20 μM) is “significantly reduced the GLP-1 secretion to the basal level”. The GLP-1 release entry in assay [3] (GPR119−/− mice compared to wild type control) is given as “unable to induce GLP-1 release”. For the same substance, the “GLP-1 levels, from the basal secretion” value in assay [3] (wild type mice, two hours treatment) amounted to 131±32%.

Values taken from patent US12503426B2, “Synthetic derivatives of oleoyl-lysophosphatidylinositol (oleoyl-LPI) and uses thereof” (LIPOVEXA SRL, priority 2017, dated 2025).
